Legend:
SW1573 [1] = test: Antiproliferative activity against resistant human SW1573 2R 160 cells harboring P-gp after 72 hrs by MTT assay; format: functional, cell-based; conditions: SW1573, 72 h
MDA-MB-231 [2] = test: Antiproliferative activity against human MDA-MB-231 cells after 72 hrs by MTT assay; format: functional, cell-based; conditions: MDA-MB-231, 72 h
2008 [3] = test: Antiproliferative activity against resistant human 2008 cells clone 4 harboring MRP1 after 72 hrs by MTT assay; format: functional, cell-based; conditions: Homo sapiens, 2008, 72 h
SW1573 [4] = test: Antiproliferative activity against resistant human SW1573 2R 120 cells harboring MRP1 after 72 hrs by MTT assay; format: functional, cell-based; conditions: SW1573, 72 h
2008 [5] = test: Antiproliferative activity against resistant human 2008 cells clone 6 harboring MRP1 after 72 hrs by MTT assay; format: functional, cell-based; conditions: Homo sapiens, 2008, 72 h
A549 = test: cells; conditions: Homo sapiens, A549, 72 h
Description: Antiproliferative activity against human A549 cells after 72 hrs by MTT assay

2008 [6] = test: Antiproliferative activity against human 2008 cells after 72 hrs by MTT assay; format: functional, cell-based; conditions: Homo sapiens, 2008, 72 h
SW1573 [7] = test: Antiproliferative activity against human SW1573 cells after 72 hrs by MTT assay; format: functional, cell-based; conditions: SW1573, 72 h
MCF7 [8] = test: Antiproliferative activity against human MCF7 cells after 72 hrs by MTT assay; format: functional, cell-based; conditions: MCF7, 72 h
HeLa = test: Antiproliferative activity against human HeLa cells after 72 hrs by MTT assay; format: functional, cell-based
[9] = Cytotoxicity against African green monkey Vero cells after 72 hrs by MTT assay; format: cell-based; conditions: chlorocebus sabaeus
[10] = Antiproliferative activity against human MCF7/MX cells after 72 hrs by MTT assay; format: functional, cell-based
[11] = target: RAC-alpha serine/threonine-protein kinase (Homo sapiens, UniProt P31749); test: Inhibition of PH domain lacking AKT1 (unknown origin) using Tamara-labeled GRPRTSSFAEG peptide as substrate after 90 mins by fluorescence polarization IMAP assay
[12] = Antiproliferative activity against human MCF7/DX cells after 72 hrs by MTT assay; format: functional, cell-based
K562 = test: Cytotoxicity against human K562 cells by MTT assay; format: functional, cell-based
MDA-MB-231 [13] = test: Effect on total AKT protein expression in human MDA-MB-231 cells at antiproliferative IC50 after 48 hrs by Western blot method; format: cell-based; conditions: mda-mb-231, 48 h
MCF7 [14] = test: Cytotoxicity against human MCF7 cells by MTT assay; format: functional, cell-based

Sequence of RAC-alpha serine/threonine-protein kinase (P31749 whole entry, the tested form may be a part): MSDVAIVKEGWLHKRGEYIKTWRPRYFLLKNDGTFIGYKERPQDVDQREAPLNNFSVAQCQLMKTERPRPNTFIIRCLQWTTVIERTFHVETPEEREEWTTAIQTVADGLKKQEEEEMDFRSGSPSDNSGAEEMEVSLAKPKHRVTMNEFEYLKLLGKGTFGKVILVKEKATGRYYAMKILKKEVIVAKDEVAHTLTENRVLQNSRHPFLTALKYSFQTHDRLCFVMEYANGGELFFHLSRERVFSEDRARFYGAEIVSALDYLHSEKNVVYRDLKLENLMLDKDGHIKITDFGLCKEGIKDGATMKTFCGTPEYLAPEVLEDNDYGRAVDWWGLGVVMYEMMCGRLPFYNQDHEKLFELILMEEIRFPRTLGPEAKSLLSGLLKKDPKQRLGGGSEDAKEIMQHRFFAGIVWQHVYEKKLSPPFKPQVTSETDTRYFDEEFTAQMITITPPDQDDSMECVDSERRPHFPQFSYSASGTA

| SMILES | IC50 (SW1573 [1]) [µM] | IC50 (MDA-MB-231 [2]) [µM] | IC50 2008 [3] [µM] | IC50 (SW1573 [4]) [µM] | IC50 2008 [5] [µM] | IC50 (A549) [µM] | IC50 2008 [6] [µM] | IC50 (SW1573 [7]) [µM] | IC50 (MCF7 [8]) [µM] | IC50 (HeLa) [µM] | CC50 at 72 h [9] [µM] | IC50 [10] [µM] | IC50 [11] [µM] | IC50 [12] [µM] | IC50 (K562) [µM] | Activity (MDA-MB-231 [13]) | IC50 (MCF7 [14]) [µM] |
| --- | --- | --- | --- | --- | --- | --- | --- | --- | --- | --- | --- | --- | --- | --- | --- | --- | --- |
| COC(=O)c1c(C)nc(NNC(=O)c2cccc3c(=O)c4ccccc4[nH]c23)nc1-c1cccc(OC)c1 | 10 | 58.3 | 74 | > 100 | 72 | 27.2 | 34 | 5 | 32 | 72.6 | 95.1 | 30 | 0.482 | 78 | – | – | – |
| CCOC(=O)c1c(C)nc(NNC(=O)c2cccc3c(=O)c4ccccc4[nH]c23)nc1-c1ccc(C)cc1 | – | 5.6 | – | – | – | 9.74 | – | – | 11.4 | 48.5 | 72.3 | – | 0.98 | – | – | – | – |
| Cc1cccc2c(=O)c3c(NCc4ccccc4)ccc(C(=O)NCCN(C)C)c3[nH]c12 | – | – | – | – | – | – | – | – | – | – | – | – | – | – | 0.46 | – | – |
| CCOC(=O)c1c(C)nc(NNC(=O)c2cccc3c(=O)c4ccccc4[nH]c23)nc1-c1ccc(OC)cc1 | – | 7.12 | – | – | – | 3.26 | – | – | 10.5 | 74.5 | 82.3 | – | 0.00172 | – | – | Non-Toxic | – |
| COC(=O)c1c(C)nc(NNC(=O)c2cccc3c(=O)c4ccccc4[nH]c23)nc1-c1ccccc1F | – | 41.6 | – | – | – | 20.6 | – | – | 25.7 | 67.3 | 76.1 | – | 0.432 | – | – | – | – |
| COC(=O)c1c(C)nc(NNC(=O)c2cccc3c(=O)c4ccccc4[nH]c23)nc1-c1ccc(C)cc1 | – | 23.7 | – | – | – | 40.5 | – | – | 45.2 | 76.4 | 64.2 | – | 0.738 | – | – | – | – |
| CCOC(=O)c1c(C)nc(NNC(=O)c2cccc3c(=O)c4ccccc4[nH]c23)nc1-c1ccc(F)cc1 | – | > 100 | – | – | – | > 100 | – | – | > 100 | 47.1 | 58.2 | – | 0.176 | – | – | – | – |
| CCOC(=O)c1c(C)nc(NNC(=O)c2cccc3c(=O)c4ccccc4[nH]c23)nc1-c1cccc(OC)c1 | – | > 100 | – | – | – | > 100 | – | – | > 100 | > 100 | 64.1 | – | 0.251 | – | – | – | – |
| CCOC(=O)c1c(C)nc(NNC(=O)c2cccc3c(=O)c4ccccc4[nH]c23)nc1CC(C)C | – | 8.61 | – | – | – | 3.9 | – | – | 4.32 | 39.1 | 78.2 | – | 0.012 | – | – | Non-Toxic | – |
| COc1ccc(Cn2cc(Cn3c4ccccc4c(=O)c4cc(OC)ccc43)nn2)cc1 | – | – | – | – | – | – | – | – | – | – | – | – | – | – | – | – | 11 |
| COc1cccc2c1C(=O)c1c(O)c3c(c(O)c1C2=O)C[C@@](O)(C(=O)CO)C[C@@H]3O[C@H]1C[C@H](N)[C@H](O)[C@H](C)O1 [DOXORUBICIN] | – | – | – | – | – | 10.2 | – | – | – | – | – | – | – | – | – | Non-Toxic | – |
| COC(=O)c1c(C)nc(NNC(=O)c2cccc3c(=O)c4ccccc4[nH]c23)nc1-c1ccccc1 | – | 47.4 | – | – | – | 20.4 | – | – | 36.2 | 56.7 | 80 | – | 0.056 | – | – | – | – |
| CCOC(=O)c1c(C)nc(NNC(=O)c2cccc3c(=O)c4ccccc4[nH]c23)nc1-c1ccccc1F | – | 6.28 | – | – | – | 3.12 | – | – | 7.3 | 52.6 | 61.3 | – | 0.0082 | – | – | Non-Toxic | – |
| CCOC(=O)c1c(C)nc(NNC(=O)c2cccc3c(=O)c4ccccc4[nH]c23)nc1-c1ccc(OC)c(OC)c1 | 62 | 47.3 | 25 | 38 | 19 | 41.7 | 15 | 45 | 26 | 57.5 | 84.3 | 38 | 0.115 | 30 | – | – | – |
| COC(=O)c1c(C)nc(NNC(=O)c2cccc3c(=O)c4ccccc4[nH]c23)nc1-c1ccc(F)cc1 | 62 | 56.2 | 24 | > 100 | 27 | 36.5 | 23 | 75 | 33 | 44.5 | 78.2 | 30 | 0.313 | 45 | – | – | – |
| COC(=O)c1c(C)nc(NNC(=O)c2cccc3c(=O)c4ccccc4[nH]c23)nc1-c1ccc(OC)cc1 | – | 74.5 | – | – | – | 44.8 | – | – | 52.1 | 37.4 | 86.2 | – | 0.64 | – | – | – | – |
| CCOC(=O)c1c(C)nc(NNC(=O)c2cccc3c(=O)c4ccccc4[nH]c23)nc1-c1ccccc1 | – | 19.6 | – | – | – | 8.49 | – | – | 15.6 | 45.8 | 92.8 | – | 0.0047 | – | – | Non-Toxic | – |
| C#Cc1cccc(Nc2ncnc3cc(OCCOC)c(OCCOC)cc23)c1 [ERLOTINIB] | – | – | – | – | – | 21.3 | – | – | – | – | – | – | – | – | – | – | – |

From ChEMBL document CHEMBL4130433, “Acridone-pyrimidine hybrids- design, synthesis, cytotoxicity studies in resistant and sensitive cancer cells and molecular docking studies” (Eur J Med Chem, 2017)
